# Experiments:
# SW480 tumor cells = experiment: Immune cell co-culture of TALL-104 T cells and SW480 tumor cells; assay type: cell-based, Human; conditions: for dead cells out of total cells, average, after normalization: 1:1 TALL-104 to SW480
# Protocol: (§1) Immune cell co-culture experiments. Co-culture experiments were conducted with GFP+ SW480 or HCT-116 colorectal cancer cells and either NK-92 natural killer cells or TALL-104 T cells in a 48-well plate, in the presence or absence of 9-ING-41. HCT-116 cells were labeled using CellTracker™ Green CMFDA (5-chloromethylfluorescein diacetate), immune cells (NK-92, TALL-104) were labeled using CellTracker™ Blue CMAC Dye (7-amino-4-chloromethylcoumarin), and ethidium homodimer-1 (EthD-1) was used as a marker of cell death (Invitrogen, Thermo Fisher Scientific, Waltham, MA, USA).
# (§2) Co-culture experiments were conducted with GFP+ SW480 colorectal cancer cells and either NK-92 natural killer cells or TALL-104 T cells at various effector/target ratios in a 48-well plate, in the presence or absence of 9-ING-41.
# The compound 9-lNG-41 boosts immune cell-mediated tumor cell-killing in a co-culture model. A co-culture of GFP+ SW480 tumor cells and Green CMFDA-labeled TALL-104 T cells treated with 9-ING-41 lead to an increase in tumor cell death after twenty-four hours. […] In the co-culture with tumor and immune cells only, in the absence of drug, the inventors noted that the percentage of dead cells out of total cells was approximately 27%, after normalization. Normalization was carried out by subtracting the percentage of cell death due to drug or vehicle control (DMSO) only from the percentage of dead cells observed in the co-culture treated with drug.
# Pre-treatment with 9-ING-41 sensitizes SW480 tumor cells to immune cell-mediated cell killing. To determine if the increased amount of immune-cell mediated tumor cell-killing was due to the drug's impact on the tumor cells or the immune cells, the inventors next pre-treated tumor cells with 9-ING-41 for twenty-four hours before the co-culture with immune cells began. Pre-treatment with 9-ING-41 sensitized SW480 tumor cells to TALL-104 cell-mediated cell killing. The raw percentages of cell death were used to normalize the data. The inventors confirmed these co-culture results using healthy, CD8+ T cells instead of TALL-104 cells.
# colorectal cancer cells = experiment: Co-culture with pre-treatment of effector or target cell population; assay type: cell-based, Human; conditions: target cells pre-treated before co-culture
# Protocol: as §2, with “9-ING-41. Follow-up experiments compared the effect of pre-treating either the effector or the target cell population with 9-ING-41 before the co-culture experiment was started.” for “9-ING-41.”
# [1] = test system: HCT-116 colorectal cancer cells; experiment: Co-culture of HCT-116 and TALL-104 cells with or without αPD-1 therapy; assay type: cell-based, Human; conditions: compared with the other culture conditions
# Protocol: as §1
# 9-ING-41 increases tumor cell death in combination with αPD-1 therapy in a co-culture of HCT-116 colorectal cancer cells and immune cells. The inventors were interested in the applicability of GS3K-3 inhibitors such as 9-ING-41 in combination with immune checkpoint blockade. The inventors next performed co-cultures of immune cells (TALL-104, NK-92) and tumor cells (HCT-116) in the presence or absence of 9-ING-41, as well as either pembrolizumab® or nivolumab®, two humanized monoclonal antibodies against PD-1. The inventors evaluated HCT-116 cells in this co-culture model to determine if the 9-ING-41-mediated increase in immune cell-mediated SW480 cell killing could be reproduced in another colorectal cancer cell line.
# [2] = test system: HCT-116 colorectal cancer cells; experiment: Co-culture of HCT-116 and NK-92 cells with or without αPD-1 therapy; assay type: cell-based, Human; conditions: 9-ING-41+NK-92
# Protocol: as §1
# [3] = test system: HT-29 colorectal cancer cells; experiment: Western blot analysis, HT-29; assay type: cell-based, Human
# Protocol: (§3) Western blot analysis. Cells were plated in a 6-well plate and incubated overnight before the spent media was replaced with drugged media. Drug treatment lasted for indicated durations. Protein was extracted using radioimmunoprecipitation (RIPA) assay buffer (Cat #R0278, Sigma-Aldrich, St. Louis, MO) containing cOmplete™ Mini, EDTA-free Protease Inhibitor Cocktail (Cat #4693159001, Roche, Basel, Switzerland). Denaturing sample buffer was added, samples were boiled at 95 degrees for 10 minutes. An equal amount of protein lysate was electrophoresed through NuPAGE™ 4 to 12%, Bis-Tris, 1.5 mm, Mini Protein Gels (Invitrogen, Waltham, MA, USA) then transferred to PVDF membranes. The PVDF membrane was blocked with 5% non-fat milk (Sigma-Aldrich, St. Louis, MO, USA) in 1× TTBS. Primary antibodies were incubated with the transferred PVDF membrane in blocking buffer at 4° C. overnight. Secondary antibodies used included goat anti-rabbit IgG (H+L) secondary antibody, HRP (Cat #31460, Invitrogen, Waltham, MA, USA) and goat anti-mouse IgG (H+L) secondary antibody, HRP (Cat #31430, Invitrogen, Waltham, MA, USA). Signal was detected using a Syngene Imaging System.
# (§4) 9-ING-41 treatment decreases survival factor expression while increasing PD-L1 levels in colorectal cancer cell lines. To elucidate the mechanism behind the differential effects of 9-ING-41 on either colorectal cancer or immune cells in co-culture and cytokine profiling assays, the inventors performed Western blot analyses on tumor and immune cells treated with 9-ING-41 over a 72-hour time course.
# (§5) Treating cells from colorectal cancer cell lines with 1 μM 9-ING-41 decreases Surivin, NF-κB p65, and IκBα while increasing PD-L1 levels in, 9-ING-41 treatment of immune cells increases NIK. Western blot analysis of HCT-116 and HT-29 colorectal cancer cells for expression of indicated proteins after increasing durations of 9-ING-41 treatment (0-72 hours). Western blot analysis of TALL-104 T cells for expression of indicated proteins after increasing durations of 9-ING-41 treatment (0-72 hours). […]
# TALL-104 T cells = experiment: Western blot analysis, TALL-104; assay type: cell-based, Human
# Protocol: as §3, §4, §5
# [4] = test system: NK-92 natural killer cells; experiment: Western blot analysis of Mcl-1, NK-92; assay type: cell-based, Human; conditions: through the 48-hour endpoint
# Protocol: as §3
# Treating cells from colorectal cancer cell lines with 1 μM 9-ING-41 decreases Surivin, NF-κB p65, and IκBα while increasing PD-L1 levels in, 9-ING-41 treatment of immune cells increases NIK. […]
# [5] = Body weight, complete blood count and serum chemistry in the CT-26 BALB/c model; set-up: species or system BALB/c mice; conditions: mouse, in vivo
# From the text: As can be expected in mice with significant tumor burdens, mice across treatment groups had decreased albumin levels and evidence of mild marrow hypoplasia resulting in mild anemia, and lower white blood cell and platelet counts. This effect was independent of treatment group and likely related to tumor burden at the time of sacrifice.
# [6] = as treatment duration increased
compound,measurement,setting,value
Cn1cc(C2=C(c3coc4ccc(F)cc34)C(=O)NC2=O)c2cc3c(cc21)OCO3 [9-ING-41],"dead cells out of total cells, average, after normalization","SW480 tumor cells; 5 μM 9-ING-41, 24-hour co-culture",33%
same,"dead cells out of total cells, average, after normalization","SW480 tumor cells; 10 μM 9-ING-41, 24-hour co-culture",37%
same,amount of TALL-104 cell-mediated SW480 cell-killing,"SW480 tumor cells; after treatment, 24 hours",dose-dependent increase
same,T cell (TALL-104) killing of colorectal cancer cells,SW480 tumor cells; compared to controls without drug treatment,significant increase
same,tumor cell death in SW480 monocultures treated with drug only,"SW480 tumor cells; monoculture, no immune cells",Limited tumor cell death
same,TALL-104 cell-mediated cell killing after tumor cell pre-treatment,SW480 tumor cells; tumor cells pre-treated 24 hours before co-culture,sensitized
same,cell-killing after pre-treatment of the target tumor cells,colorectal cancer cells,bolstered cell-killing
same,cell death after twenty-four hours of co-culture with TALL-104,[1],even greater amount of cell death
same,benefit over combination αPD-1 therapy+NK-92 only groups,[2],significant benefit
same,IKKβ and Nik,[3]; 0-72 hours,did not change
same,PD-L1,[3]; [6],increased
same,"Survivin, NF-KB, IKBα, pIKBα, and Bcl-2",[3]; by the 72-hour timepoint,decreased
same,PD-1 expression,TALL-104 T cells; 0-72 hours,decreased
same,Survivin and NIK,TALL-104 T cells; 0-72 hours,surprising increases
same,"NF-KB, IKK β, IKBα, pIKBα, and Bcl-2",TALL-104 T cells; [6],no significant changes
same,Mcl-1 protein expression,[4],did not observe a significant decrease
same,electrolyte perturbations,[5],free of significant electrolyte perturbations
same,renal function (blood urea nitrogen and creatinine),[5],maintained normal renal function
